The term Ki denotes a measure of affinity in units of concentration, obtained from inhibition or displacement. Read a high Ki as a looser hold on the target.

Structures are written as SMILES. Residues, ends and D or L forms follow the SMILES beside them. *: point of attachment. X1 = O=C(O)CCC(NC(=O)NC(CCCCNC(=O)CCCCCCC(=O)*)C(=O)O)C(=O)O; Acetyl(2-STrt) = O=C(CSC(c1ccccc1)(c1ccccc1)c1ccccc1)*

The values below come from publication PMC3773988 (Journal of medicinal chemistry, 2013).

Sequence of PSMA (Q04609 whole entry): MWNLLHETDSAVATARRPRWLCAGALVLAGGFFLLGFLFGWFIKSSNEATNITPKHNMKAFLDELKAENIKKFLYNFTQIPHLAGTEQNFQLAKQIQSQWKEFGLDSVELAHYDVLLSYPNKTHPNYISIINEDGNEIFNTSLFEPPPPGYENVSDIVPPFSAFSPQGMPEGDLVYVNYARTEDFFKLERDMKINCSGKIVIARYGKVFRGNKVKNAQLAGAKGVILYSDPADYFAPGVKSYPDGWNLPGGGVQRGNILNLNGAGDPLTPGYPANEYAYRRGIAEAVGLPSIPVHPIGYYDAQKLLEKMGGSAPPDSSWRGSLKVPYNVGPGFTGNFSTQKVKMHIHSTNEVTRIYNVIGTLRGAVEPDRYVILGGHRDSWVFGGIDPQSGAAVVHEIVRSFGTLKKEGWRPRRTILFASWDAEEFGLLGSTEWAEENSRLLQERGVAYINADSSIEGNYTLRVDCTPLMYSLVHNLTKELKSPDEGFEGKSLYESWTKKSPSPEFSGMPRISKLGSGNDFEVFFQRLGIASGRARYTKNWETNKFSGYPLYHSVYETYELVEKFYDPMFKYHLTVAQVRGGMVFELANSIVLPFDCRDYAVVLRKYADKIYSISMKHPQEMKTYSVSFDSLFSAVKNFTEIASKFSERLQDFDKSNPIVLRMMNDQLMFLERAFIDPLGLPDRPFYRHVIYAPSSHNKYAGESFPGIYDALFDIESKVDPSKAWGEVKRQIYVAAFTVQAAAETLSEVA

The assay has as its target PSMA (Homo sapiens, UniProt Q04609). Briefly: NAALADase assay. The assay is classed as biochemical.
Take `O=C(O)CCC(NC(=O)NC(CCCCNC(=O)CCCCCCC(=O)NC(CCCCN(Cc1ncc[nH]1)Cc1ncc[nH]1)C(=O)O)C(=O)O)C(=O)O` (centres unmarked) [Compound L10, 2-{3-[5-(7-(5-[Bis-(1H-imidazol-2-ylmethyl)-amino]-1-carboxy-pentylcarbamoyl)-heptanoylamino)-1-carboxy-pentyl]-ureido}-pentanedioic acid]: the inhibition constant (Ki) was 16.3 nM. This lies in the double-digit nanomolar range. The value for `O=C(O)CCC(NC(=O)NC(CCCCNC(=O)CCCCCCC(=O)NC(CCCCN(CC(=O)O)Cc1ccccn1)C(=O)O)C(=O)O)C(=O)O` (centres unmarked) [Compound L9, 2-[3-(1-Carboxy-5-(7-[1-carboxy-5-(carboxymethyl-pyridin-2-ylmethyl-amino)-pentylcarbamoyl]-heptanoylamino)-pentyl)-ureido]-pentanedioic acid] was 12.6 nM; that for `O=C(O)CC[C@H](NC(=O)N[C@@H](CCCCNC(=O)CCCCCCC(=O)NCCCC[C@@H](NC(=O)C(CNC(=O)CSC(c1ccccc1)(c1ccccc1)c1ccccc1)NC(=O)CSC(c1ccccc1)(c1ccccc1)c1ccccc1)C(=O)O)C(=O)O)C(=O)O` (stereo partly drawn) [Compound L16, (10R, 29S ,33S)-4,8,16,23,31-pentaoxo-1,1,1-triphenyl-7-(2-(tritylthio)acetamido)-2-thia-5,9,15,24,30,32-hexaazapentatriacontane-10,29,33,35-tetracarboxylic acid] was 0.048 nM; that for `O=C(O)CCC(NC(=O)NC(CCCCNC(=O)CCCCCCC(=O)NCCCCC(NC(=O)CNC(=O)CNC(=O)CSC(c1ccccc1)(c1ccccc1)c1ccccc1)C(=O)O)C(=O)O)C(=O)O` (centres unmarked) [Compound L11] was 0.03 nM. The value for `O=C(O)CCC(NC(=O)NC(CCCCNC(=O)CCCCCCC(=O)NCCCCC(NC(=O)C(Cc1ccccc1)NC(=O)C(Cc1ccccc1)NC(=O)CNC(=O)CNC(=O)CSC(c1ccccc1)(c1ccccc1)c1ccccc1)C(=O)O)C(=O)O)C(=O)O` (centres unmarked) [Compound L13, 12,15-dibenzyl-4,7,10,13,16,24,31,39-octaoxo-1,1,1-triphenyl-2-thia-5,8,11,14,17,23,32,38,40-nonaazatritetracontane-18,37,41,43-tetracarboxylic acid] ({Acetyl(2-STrt)}-GGFFK(X1)-OH; configuration not given here) was 1.91 nM; that for `O=C(O)CCC(NC(=O)NC(CCCCNC(=O)CCCCCCC(=O)NCCCCC(NC(=O)C(Cc1ccccc1)NC(=O)CNC(=O)CNC(=O)CSC(c1ccccc1)(c1ccccc1)c1ccccc1)C(=O)O)C(=O)O)C(=O)O` (centres unmarked) [Compound L12, 12-benzyl-4,7,10,13,21,28,36-heptaoxo-1,1,1-triphenyl-2-thia-5,8,11,14,20,29,35,37-octaazatetracontane-15,34,38,40-tetracarboxylic acid] ({Acetyl(2-STrt)}-GGFK(X1)-OH; configuration not given here) was 0.13 nM; that for `NNc1ccc(C(=O)NCCCCC(NC(=O)CCCCCCC(=O)NCCCCC(NC(=O)NC(CCC(=O)O)C(=O)O)C(=O)O)C(=O)O)cn1` (centres unmarked) [Compound L19, 2-(3-[1-Carboxy-5-(7-(1-carboxy-5-[(6-hydrazino-pyridine-3-carbonyl)-amino]-pentylcarbamoyl)-heptanoylamino)-pentyl]-ureido)-pentanedioic acid] was 1.74 nM. In the case of `NC(Cc1cn(CCCC[C@H](NC(=O)CCCCCCC(=O)NCCCC[C@H](NC(=O)N[C@@H](CCC(=O)O)C(=O)O)C(=O)O)C(=O)O)nn1)C(=O)O` (stereo partly drawn) [Compound L8, (3S,7S,22S)-26-(4-(2-amino-2-carboxyethyl)-1H-1,2,3-triazol-1-yl)-5,13,20-trioxo-4,6,12,21-tetraazahexacosane-1,3,7,22-tetracarboxylic acid], the Ki was 1.12 nM. This Ki is about 1.6-fold lower than that of the compound before.
